Assay results taken from patent publication US20080234262A1 (Wyeth, priority 2007, published 2008).

Assays:
PI3K = PI3K (Homo sapiens, UniProt P42336); assay: Fluorescence polarization assay for PI3K; type: biochemical; details: PI3Kα; read-out: PI3Kα IC50;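 further: PI3K kinase reaction on PIP2 with ATP, 30-60 min, product sensed by GST-GRP with red probe in fluorescence polarization (mP), controls without enzyme and at zero time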
prostate line LNCap = assay: In vitro cell culture growth assay (MTS), LNCap; type: cell-based, human; details: Homo sapiens, LNCaP, 72 h, LNCap cells, three days after drug treatment
breast line MDA468 = assay: In vitro cell culture growth assay (MTS), MDA468; type: cell-based, human; details: Homo sapiens, 72 h, MDA468 cells, three days after drug treatment
Outline: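 MDA468 or LNCap cells received inhibitors one day after plating and were grown for three days. Viable cell density read by MTS conversion, absorbance 490 nm, expressed as percent of control growth versus vehicle-treated cells on the same plate.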

Chain of PI3K (P42336 whole entry): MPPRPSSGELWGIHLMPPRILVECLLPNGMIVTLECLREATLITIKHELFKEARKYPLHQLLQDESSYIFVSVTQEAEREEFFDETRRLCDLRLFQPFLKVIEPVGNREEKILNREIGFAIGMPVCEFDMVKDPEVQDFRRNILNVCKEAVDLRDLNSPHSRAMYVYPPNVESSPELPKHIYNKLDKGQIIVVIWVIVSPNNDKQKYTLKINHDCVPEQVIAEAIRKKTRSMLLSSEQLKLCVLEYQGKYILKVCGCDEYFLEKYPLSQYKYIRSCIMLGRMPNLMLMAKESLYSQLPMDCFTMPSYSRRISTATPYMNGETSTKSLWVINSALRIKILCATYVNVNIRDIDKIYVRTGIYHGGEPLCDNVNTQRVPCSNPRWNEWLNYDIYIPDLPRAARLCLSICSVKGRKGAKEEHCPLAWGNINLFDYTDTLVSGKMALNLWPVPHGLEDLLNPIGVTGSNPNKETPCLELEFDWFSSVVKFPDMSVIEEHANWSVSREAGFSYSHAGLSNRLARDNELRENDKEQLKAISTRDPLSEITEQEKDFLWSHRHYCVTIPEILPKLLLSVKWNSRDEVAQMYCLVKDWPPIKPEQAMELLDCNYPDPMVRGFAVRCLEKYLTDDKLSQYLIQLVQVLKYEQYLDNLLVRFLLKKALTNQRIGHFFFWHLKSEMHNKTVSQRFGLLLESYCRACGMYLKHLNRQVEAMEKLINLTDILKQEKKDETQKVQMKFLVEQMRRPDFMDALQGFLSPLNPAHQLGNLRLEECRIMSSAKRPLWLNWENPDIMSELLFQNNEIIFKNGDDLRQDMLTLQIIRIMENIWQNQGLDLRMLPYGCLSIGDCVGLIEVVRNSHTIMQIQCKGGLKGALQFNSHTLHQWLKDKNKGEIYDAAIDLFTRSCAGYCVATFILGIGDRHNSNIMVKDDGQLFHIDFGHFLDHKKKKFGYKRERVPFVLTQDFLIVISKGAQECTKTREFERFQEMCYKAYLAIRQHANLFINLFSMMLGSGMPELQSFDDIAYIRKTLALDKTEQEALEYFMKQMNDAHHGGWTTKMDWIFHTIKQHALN
Chain of PI3K (P27986 whole entry partner): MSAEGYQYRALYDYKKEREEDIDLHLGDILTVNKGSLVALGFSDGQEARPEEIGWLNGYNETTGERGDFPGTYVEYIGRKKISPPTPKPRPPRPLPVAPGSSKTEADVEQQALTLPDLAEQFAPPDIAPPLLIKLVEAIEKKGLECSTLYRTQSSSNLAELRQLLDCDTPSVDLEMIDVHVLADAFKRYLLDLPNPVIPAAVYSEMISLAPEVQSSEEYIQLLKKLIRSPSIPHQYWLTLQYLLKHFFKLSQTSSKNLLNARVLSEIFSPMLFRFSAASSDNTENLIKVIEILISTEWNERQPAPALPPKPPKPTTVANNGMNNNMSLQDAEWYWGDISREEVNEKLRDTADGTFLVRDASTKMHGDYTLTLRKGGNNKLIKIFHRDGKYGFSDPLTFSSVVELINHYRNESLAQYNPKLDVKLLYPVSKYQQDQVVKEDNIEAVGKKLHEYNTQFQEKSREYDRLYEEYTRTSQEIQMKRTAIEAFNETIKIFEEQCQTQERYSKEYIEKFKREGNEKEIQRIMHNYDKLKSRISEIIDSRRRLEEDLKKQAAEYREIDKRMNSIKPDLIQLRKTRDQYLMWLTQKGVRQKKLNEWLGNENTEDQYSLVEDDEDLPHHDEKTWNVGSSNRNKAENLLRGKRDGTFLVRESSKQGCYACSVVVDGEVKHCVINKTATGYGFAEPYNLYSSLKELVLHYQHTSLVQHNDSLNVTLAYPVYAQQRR

With CC(C)(C)C(=O)Nc1ccc(-c2nc(N3CCOCC3)c3cnn(C4CCN(Cc5ccccc5)CC4)c3n2)cc1 [Compound 187] the IC50 (PI3K) was 7.77 µM, the IC50 (prostate line LNCap) was 35 µM and the IC50 (breast line MDA468) was 40 µM.

Work on c1ccc(CN2CCC(n3ncc4c(N5CCOCC5)nc(-c5ccn[nH]5)nc43)CC2)cc1 [Compound 188] yielded an IC50 (PI3K) of 3 µM, an IC50 (prostate line LNCap) of 7 µM and an IC50 (breast line MDA468) of 19 µM.

For c1ccc(CN2CCC(n3ncc4c(N5CCOCC5)nc(-c5cn[nH]c5)nc43)CC2)cc1 [Compound 189], the IC50 (PI3K) was 0.765 µM, the IC50 (prostate line LNCap) was 3.2 µM and the IC50 (breast line MDA468) was 8.3 µM.

c1ccc(CN2CCC(n3ncc4c(N5CCOCC5)nc(-c5ccc6nonc6c5)nc43)CC2)cc1 [Compound 190] showed an IC50 (PI3K) of 1.32 µM, an IC50 (prostate line LNCap) of 6.2 µM and an IC50 (breast line MDA468) of 6 µM.

In the case of c1ccc(CN2CCC(n3ncc4c(N5CCOCC5)nc(-c5ccc(NCCN6CCOCC6)nc5)nc43)CC2)cc1 [Compound 193], the IC50 (PI3K) is reported as 8.25 µM, the IC50 (prostate line LNCap) is reported as 10 µM and the IC50 (breast line MDA468) is reported as 12 µM.

For C=CC(=O)N1CCC(n2ncc3c(N4CCOCC4)nc(-c4ccc5[nH]ccc5c4)nc32)CC1 [Compound 194], the IC50 (PI3K) was 1.06 µM, the IC50 (prostate line LNCap) was 0.95 µM and the IC50 (breast line MDA468) was 3 µM.

O=C(c1ccc[n+]([O-])c1)N1CCC(n2ncc3c(N4CCOCC4)nc(-c4ccc5[nH]ccc5c4)nc32)CC1 [Compound 197] was tested, and the IC50 (PI3K) was 3.06 µM, the IC50 (prostate line LNCap) was 2.5 µM and the IC50 (breast line MDA468) was 3.8 µM.

O=C(c1ccc(F)nc1)N1CCC(n2ncc3c(N4CCOCC4)nc(-c4ccc5[nH]ccc5c4)nc32)CC1 [Compound 201] gave an IC50 (PI3K) of 2.02 µM, an IC50 (prostate line LNCap) of 0.74 µM and an IC50 (breast line MDA468) of 3 µM.

O=C(c1ccc(Br)nc1)N1CCC(n2ncc3c(N4CCOCC4)nc(-c4ccc5[nH]ccc5c4)nc32)CC1 [Compound 203] showed an IC50 (PI3K) of 1.16 µM, an IC50 (prostate line LNCap) of 1.05 µM and an IC50 (breast line MDA468) of 3 µM.

For CCOC(=O)Nc1ccc(-c2nc(N3CCOCC3)c3cnn(C4CCN(Cc5ccccc5)CC4)c3n2)cc1 [Compound 207, ethyl {4-[1-(1-benzylpiperidin-4-yl)-4-morpholin-4-yl-1H-pyrazolo[3,4-d]pyrimidin-6-yl]phenyl}carbamate], the IC50 (PI3K) was 0.659 µM, the IC50 (prostate line LNCap) was 3 µM and the IC50 (breast line MDA468) was 5.2 µM.

CC(C)OC(=O)Nc1ccc(-c2nc(N3CCOCC3)c3cnn(C4CCN(Cc5ccccc5)CC4)c3n2)cc1 [Compound 208] was tested, and the IC50 (PI3K) was 3.79 µM, the IC50 (prostate line LNCap) was 5.8 µM and the IC50 (breast line MDA468) was 11 µM.

Work on Nc1ncc(-c2nc(N3CCOCC3)c3cnn(C4CCN(Cc5cccnc5)CC4)c3n2)cn1 [Compound 211] yielded an IC50 (PI3K) of 0.023 µM, an IC50 (prostate line LNCap) of 0.17 µM and an IC50 (breast line MDA468) of 0.8 µM.

c1ccc(N2CCC(n3ncc4c(N5CCOCC5)nc(-c5ccc6[nH]ccc6c5)nc43)CC2)nc1 [Compound 217, 6-(1H-indol-5-yl)-4-morpholin-4-yl-1-(1-pyridin-2-ylpiperidin-4-yl)-1H-pyrazolo[3,4-d]pyrimidine] showed an IC50 (PI3K) of 1.4 µM, an IC50 (prostate line LNCap) of 1.2 µM and an IC50 (breast line MDA468) of 1.9 µM.

In the case of CNC(=O)Nc1ccc(-c2nc(N3CCOCC3)c3cnn(C4CCN(C(=O)c5cccnc5)CC4)c3n2)cc1 [Compound 219], the IC50 (PI3K) is reported as 0.548 µM, the IC50 (prostate line LNCap) is reported as 0.15 µM and the IC50 (breast line MDA468) is reported as 0.6 µM.

For CNC(=O)Nc1cccc(-c2nc(N3CCOCC3)c3cnn(C4CCN(Cc5ccccc5)CC4)c3n2)c1 [Compound 228, N-{3-[1-(1-benzylpiperidin-4-yl)-4-morpholin-4-yl-1H-pyrazolo[3,4-d]pyrimidin-6-yl]phenyl}-N′-methylurea], the IC50 (PI3K) was 1.92 µM, the IC50 (prostate line LNCap) was 5.8 µM and the IC50 (breast line MDA468) was 6.8 µM.

For c1ccc(CN2CCC(n3ncc4c(N5CCOCC5)nc(-c5cnc6ccccc6c5)nc43)CC2)cc1 [Compound 230, 3-[1-(1-benzylpiperidin-4-yl)-4-morpholin-4-yl-1H-pyrazolo[3,4-d]pyrimidin-6-yl]quinoline], the IC50 (PI3K) was 6 µM, the IC50 (prostate line LNCap) was 60 µM and the IC50 (breast line MDA468) was 22 µM.

CC(=O)Nc1ccc(-c2nc(N3CCOCC3)c3cn[nH]c3n2)cc1 [Compound 233, N-[4-(4-morpholin-4-yl-1H-pyrazolo[3,4-d]pyrimidin-6-yl)phenyl]acetamide] gave an IC50 (PI3K) of 0.443 µM, an IC50 (prostate line LNCap) of 3.7 µM and an IC50 (breast line MDA468) of 8.5 µM.
